Data from US20110281794A1, “C[…]-[…] A[…] ADM[…] A BRAIN-DEAD, HEART-BEATING POTENTIAL ORGAN DONOR” (VIVOLINE MEDICAL AB, priority 2008, published 2011).

How the values were obtained:
[1] = cited from earlier work
[2] = in vivo; cited from earlier work
[3] = molecular target: NET (nor-epinephrine transporter) (Homo sapiens, UniProt P23975); conditions: cited from earlier work
[4] = system: brain-dead, heart-beating cadaver of a pig; experiment: Blood pressure and organ maintenance in brain-dead, heart-beating pig under intravenous infusion; type: in vivo
Protocol: The following ingredients: 1 mg (1 ml) adrenaline, 1 mg (1 ml) nor-adrenaline, 0.3 mg (3 ml) T3, 300 mg (3 ml) cortisone, […] (9 ml) Minirin and 1 mg (3 ml) cocaine were dissolved in 50 ml physiological sodium chloride solution.
For reducing the risk of diabetes insipidus, a bolus of […] Minirin was given at the start of the treatment.
The inventor has performed more than 20 experiments with pigs and using cocaine in combination with adrenaline and nor-adrenaline.
FIG. 4 is a diagram over blood pressure during an experiment similar to Experiment 1.

[5] = system: alfa-1; experiment: Potency as replacement of nor-adrenaline (alfa-1-agonist)
Description: In some embodiments, the adrenaline and/or nor-adrenaline may be partly or entirely replaced by an equivalent substance. For example, phenylephrine is an alfa-1-agonist and may replace nor-adrenaline.

Chain of NET (nor-epinephrine transporter) (P23975 whole entry, species assumed, the tested form may be a part): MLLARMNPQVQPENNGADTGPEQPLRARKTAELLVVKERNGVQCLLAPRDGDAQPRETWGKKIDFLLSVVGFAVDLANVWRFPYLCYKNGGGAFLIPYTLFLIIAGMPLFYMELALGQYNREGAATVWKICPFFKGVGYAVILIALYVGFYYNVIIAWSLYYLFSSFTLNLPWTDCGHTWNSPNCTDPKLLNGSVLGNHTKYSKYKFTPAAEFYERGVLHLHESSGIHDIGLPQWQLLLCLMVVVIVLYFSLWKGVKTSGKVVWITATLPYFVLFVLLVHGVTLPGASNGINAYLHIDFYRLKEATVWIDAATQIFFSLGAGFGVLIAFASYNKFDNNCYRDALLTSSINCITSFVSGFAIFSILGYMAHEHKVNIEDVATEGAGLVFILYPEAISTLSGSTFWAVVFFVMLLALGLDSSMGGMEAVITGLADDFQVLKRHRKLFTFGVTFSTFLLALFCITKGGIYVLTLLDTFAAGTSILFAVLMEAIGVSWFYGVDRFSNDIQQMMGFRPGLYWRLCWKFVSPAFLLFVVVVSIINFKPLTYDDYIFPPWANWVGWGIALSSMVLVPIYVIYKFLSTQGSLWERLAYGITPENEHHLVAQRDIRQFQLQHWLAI

NC(=O)CC[C@@H]1NC(=O)[C@H](Cc2ccccc2)NC(=O)[C@H](Cc2ccc(O)cc2)NC(=O)[C@@H](N)CSSC[C@@H](C(=O)N2CCC[C@H]2C(=O)N[C@@H](CCCN=C(N)N)C(=O)NCC(N)=O)NC(=O)[C@H](CC(N)=O)NC1=O [ADH]
half-life-time [1]: about 15 minutes

CCN(CC)CC(=O)Nc1c(C)cccc1C [Lidocaine]
effect of infusion on blood pressure [2]: vasodilatation and a lowering of the blood pressure

CNCCCN1c2ccccc2CCc2ccc(Cl)cc21 [Norclomipramine]
potency among NET inhibitors [3]: highest

CNCCCC1c2ccccc2C=Cc2ccccc21 [Protriptylin]
potency among NET inhibitors [3]: highest

CC(N)Cc1ccccc1 (stereo not drawn) [amphetamine, alpha-methylphenethylamine]
increase of mean arterial pressure ([4]; added at 29.5 hours to infusion solution of Experiment 1 without cocaine, constant until 36 hours): about 15 mmHg

COC(=O)[C@H]1[C@@H](OC(=O)c2ccccc2)C[C@@H]2CC[C@H]1N2C [cocaine, benzoylmethyl ecgonine]
potentiation of the effect of blood circulating nor-adrenaline (vasoconstriction) ([4]; added together with nor-adrenaline, compared with cocaine): much lower levels of nor-adrenaline
blood pressure maintained at a constant level ([4]; more than 20 experiments with pigs, in combination with adrenaline and nor-adrenaline, over 24 hours): 70 mmHg

CNCCCN1c2ccccc2CCc2ccccc21 [desipramine]
half-life time [1]: 30 h
mean pressure reached on infusion ([4]; Experiment 2, infusion 1.7 to 3.2 ml/hour with adrenaline and nor-adrenaline, from a mean pressure of about 40 mmHg): 80 mmHg
blood pressure after infusion rate was decreased ([4]; Experiment 2, infusion rate decreased to 2.5 and 1.7 ml/hour, never decreased further): about 60 mmHg

CNC[C@H](O)c1cccc(O)c1 [phenylephrine]
potency relative to nor-adrenaline (times less potent) [5]: about 5 times
